The values that follow come from patent publication US20090054435A1, “Phenoxyalkanoic Acid Compound” (priority 2005, published 2009).

One series concerns KKAy mice. Put plainly: Blood glucose and blood lipid (triglyceride) lowering action in mice. Format: in vivo. The conditions noted are these: 6 days; for hypoglycemic action (%): decrease rate of blood glucose vs non-administration group (100%); for hypolipidemic action (%): decrease rate of blood triglyceride vs non-administration group (100%). The source says: The test compound was mixed with a powder diet (CE-2, CLEA JAPAN, INC.) at a proportion of 0.01% (0.03% for the compound of Example 1) and freely given to KKAy mice (9 to 12-week-old, 5 mice per group) which are obese non-insulin-dependent diabetes (type-2 diabetes) models, for 6 days. During this period, water was freely given to the mice. The blood was drawn from the orbital venous plexus. Glucose and triglyceride in the plasma separated from the blood were quantitated using L Type Wako Glu2 (Wako Pure Chemical Industries, Ltd.) and L Type Wako TG·H (Wako Pure Chemical Industries, Ltd.), respectively, according to an enzyme method.

Another series deals with T1, PPAR γ-RXRα heterodimer (Homo sapiens, UniProt P37231).
T1 construct: expressed in transfected cells; host or cells: CHO-K1 (PPAR γ:RXRα:4ERPP/CHO-K1)
T1 sequence (P37231 29-505 limits assumed): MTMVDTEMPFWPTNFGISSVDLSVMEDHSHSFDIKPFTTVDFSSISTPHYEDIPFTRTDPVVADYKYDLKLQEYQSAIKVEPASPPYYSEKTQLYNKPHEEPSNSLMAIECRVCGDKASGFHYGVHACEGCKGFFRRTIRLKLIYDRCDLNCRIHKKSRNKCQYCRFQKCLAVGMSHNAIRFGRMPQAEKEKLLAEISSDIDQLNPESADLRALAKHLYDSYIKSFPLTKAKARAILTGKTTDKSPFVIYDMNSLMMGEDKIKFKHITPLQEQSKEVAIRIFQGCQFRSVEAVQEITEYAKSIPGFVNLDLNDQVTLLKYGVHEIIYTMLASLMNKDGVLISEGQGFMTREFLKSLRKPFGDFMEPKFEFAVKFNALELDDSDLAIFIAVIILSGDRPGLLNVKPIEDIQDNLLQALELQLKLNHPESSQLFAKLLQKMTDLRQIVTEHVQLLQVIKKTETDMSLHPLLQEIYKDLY
T1 sequence (P19793 1-462 partner): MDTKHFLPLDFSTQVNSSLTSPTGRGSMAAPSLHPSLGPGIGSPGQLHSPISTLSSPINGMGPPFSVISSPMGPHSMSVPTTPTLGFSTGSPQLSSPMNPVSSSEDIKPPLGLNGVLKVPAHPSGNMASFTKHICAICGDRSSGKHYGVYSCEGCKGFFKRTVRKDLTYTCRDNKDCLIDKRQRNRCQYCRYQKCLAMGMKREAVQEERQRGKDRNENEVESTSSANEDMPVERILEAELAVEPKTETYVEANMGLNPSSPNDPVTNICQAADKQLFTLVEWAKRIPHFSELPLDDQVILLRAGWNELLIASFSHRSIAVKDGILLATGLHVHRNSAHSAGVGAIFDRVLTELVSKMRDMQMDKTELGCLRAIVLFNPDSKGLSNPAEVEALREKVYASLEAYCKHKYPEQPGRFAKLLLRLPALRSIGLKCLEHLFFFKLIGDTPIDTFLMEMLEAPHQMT
As to the kind of experiment: PPAR γ-RXRα heterodimer ligand activity (luciferase reporter in PPAR γ:RXRα:4ERPP/CHO-K1 cells). Format: cell-based. The conditions noted are these: for EC50: compound concentration showing 50% of the maximum induction rate of luciferase activity, 18-24 hr incubation; for Vmax (%): maximum luciferase induction relative to 5-{4-[2-(5-methyl-2-phenyl-1,3-oxazol-4-yl)ethoxy]benzyl}-1,3-thiazolidin-2,4-dione (PPARγ full agonist) as 100%. The procedure:
The PPAR γ:RXRα:4ERPP/CHO-K1 cells described in WO03/099793 were cultured in a HamF12 medium [manufactured by Life Technologies, Inc., US] containing 10% calf fetal serum [manufactured by Life Technologies, Inc., US], sown in a 96-well white plate [manufactured by Corning Coster Corporation, US] at 2×10^4 cells/well, and incubated overnight in a carbon dioxide gas incubator at 37° C.
Then, the medium was removed from the 96 well white plate, 80 μl of HamF12 medium containing 0.1% fatty acid-free bovine serum albumin (BSA) and a test compound (20 μl) were added, and the cells were incubated for 18-24 hr in a carbon dioxide gas incubator at 37° C. The medium was removed, 40 μl of PicaGene7.5 (manufactured by Wako Pure Chemical Industries, Ltd.) 2-fold diluted with HBSS (HANKS' BALANCED SALT SOLUTION) [manufactured by BIO WHITTAKER, US] was added. After stirring, the luciferase activity was determined using the 1420 ARVO Multilabel Counter [manufactured by PerkinElmer, US].
The induction rate was calculated from the luciferase activity of each test compound based on the luciferase activity of the test compound non-administration group as 1. The test compound concentration and the induction rate were analyzed by PRISM [manufactured by GraphPad Software, Inc., US] to calculate EC50 value (compound concentration showing 50% of the maximum value of induction rate) of the test compound.
In addition, the luciferase activity induction magnification maximum value of each test compound relative to that of the 5-{4-[2-(5-methyl-2-phenyl-1,3-oxazol-4-yl)ethoxy]benzyl}-1,3-thiazolidin-2,4-dione (PPARγ full agonist) administration group as 100% was defined as Vmax and calculated.
Background: In a reporter assay the amount or activity of a reporter protein is the signal.

Setting [1] is: 0.03% in powder diet (compound of Example 1).

The structures appear in SMILES notation.

The melting point is the temperature of the solid-liquid transition. For orientation: EC50 means the concentration giving half of the maximal effect. Read a low EC50 as a more potent agent.

With `COc1ccc(C(=O)c2ccc(OCc3nc(-c4ccccc4)oc3C)cc2)c(OCC(=O)O)c1` [Example 1, (5-methoxy-2-{4-[(5-methyl-2-phenyl-1,3-oxazol-4-yl)methoxy]benzoyl}phenoxy)acetic acid], the melting point lay within 146 to 147 °C. In addition, in the series on KKAy mice (setting [1]), the “hypoglycemic action (%)” value is 54% and the “hypolipidemic action (%)” value is recorded as 44%. On PPAR γ-RXRα heterodimer, a half-maximal response (EC50) required 0.1 µM and the “Vmax (%)” value is reported as 57%.

Turning to `COc1ccc(C(=O)c2ccc(OCc3nc(-c4ccccc4)oc3C)cc2)c(OC(C)(C)C(=O)O)c1` [Example 14, 2-(5-methoxy-2-{4-[(5-methyl-2-phenyl-1,3-oxazol-4-yl)methoxy]benzoyl}phenoxy)-2-methylpropanoic acid], the melting point lay in the range of 175 to 177 °C. Further, in the series with KKAy mice (0.01% in powder diet), the “hypoglycemic action (%)” value is on record as 38% and the “hypolipidemic action (%)” value came out at 29%. For the same compound, at PPAR γ-RXRα heterodimer, a half-maximal response (EC50) required 0.015 µM and the “Vmax (%)” value worked out at 61%.

`CCCC(Oc1cc(OC)ccc1C(=O)c1ccc(OCc2nc(-c3ccccc3)oc2C)cc1)C(=O)O` (stereo not drawn) [Example 20, 2-(5-methoxy-2-{4-[(5-methyl-2-phenyl-1,3-oxazol-4-yl)methoxy]benzoyl}phenoxy)pentanoic acid] showed a melting point of 139 to 140 °C.

Compound `COc1ccc(C(=O)c2ccc(OCc3nc(-c4ccccc4)oc3C)nc2)c(OC(C)C(=O)O)c1` (stereo not drawn) [Example 21, 2-[5-methoxy-2-({6-[(5-methyl-2-phenyl-1,3-oxazol-4-yl)methoxy]pyridin-3-yl}carbonyl)phenoxy]propanoic acid] registered a melting point of 162 to 163 °C. In addition, in the series with KKAy mice (0.01% in powder diet), the “hypoglycemic action (%)” value was found to be 32% and the “hypolipidemic action (%)” value worked out at 14%. Also, at PPAR γ-RXRα heterodimer, the EC50 worked out at 0.0081 µM and the “Vmax (%)” value came to 60%.

Regarding `Cc1oc(-c2ccccc2)nc1COc1ccc(C(=O)c2ccccc2OC(C)C(=O)O)cc1` (stereo not drawn) [Example 22, 2-(2-{4-[(5-methyl-2-phenyl-1,3-oxazol-4-yl)methoxy]benzoyl}phenoxy)propanoic acid], the melting point was in the range of 186 to 187 °C. In addition, in the series with KKAy mice (0.01% in powder diet), the “hypoglycemic action (%)” value came out at 41% and the “hypolipidemic action (%)” value was found to be 48%. For the same compound, on PPAR γ-RXRα heterodimer, a half-maximal effect (EC50) was put at 0.033 µM and the “Vmax (%)” value is given as 70%.

The compound `COc1ccc(C(=O)c2ccc(OCc3nc(-c4ccccc4)oc3C)cc2)c(OC2(C(=O)O)CCC2)c1` [Example 23, 1-(5-methoxy-2-{4-[(5-methyl-2-phenyl-1,3-oxazol-4-yl)methoxy]benzoyl}phenoxy)cyclobutanecarboxylic acid] registered a melting point of 199 to 201 °C.

As for `COc1ccc(C(=O)c2ccc(OCc3nc(-c4ccccc4)sc3C)cc2)c(OC(C)(C)C(=O)O)c1` [Example 29, 2-(5-methoxy-2-{4-[(5-methyl-2-phenyl-1,3-thiazol-4-yl)methoxy]benzoyl}phenoxy)-2-methylpropanoic acid], the melting point is 145 to 147 °C.

The compound `COc1ccc(C(=O)c2ccc(OCc3coc(-c4ccccc4)n3)cc2)c(OC(C)(C)C(=O)O)c1` [Example 32, 2-(5-methoxy-2-{4-[(2-phenyl-1,3-oxazol-4-yl)methoxy]benzoyl}phenoxy)-2-methylpropanoic acid] registered a melting point of 165 to 167 °C.

`COc1ccc(C(=O)c2ccc(OCc3nc(-c4cccc(OS(C)(=O)=O)c4)oc3C)cc2)c(OC(C)(C)C(=O)O)c1` [Example 37, 2-{5-methoxy-2-[4-({5-methyl-2-[3-(methanesulfonyloxy)phenyl]-1,3-oxazol-4-yl}methoxy)benzoyl]phenoxy}-2-methylpropanoic acid] yielded a melting point of 182 to 183 °C.

Compound `COc1ccc(C(=O)c2ccc(OCCc3nc(-c4ccccc4)oc3C)cc2)c(OC(C)(C)C(=O)O)c1` [Example 38, 2-(5-methoxy-2-{4-[2-(5-methyl-2-phenyl-1,3-oxazol-4-yl)ethoxy]benzoyl}phenoxy)-2-methylpropanoic acid] yielded a melting point of 81 to 82 °C.

`COc1ccc(O[C@H](C)C(=O)O)c(C(=O)c2ccc(OCc3nc(-c4ccccc4)oc3C)cc2)c1` [Example 39, (2R)-2-(4-methoxy-2-{4-[(5-methyl-2-phenyl-1,3-oxazol-4-yl)methoxy]benzoyl}phenoxy)propanoic acid]: the melting point lay in the range of 119 to 120 °C.

For `COc1cc(C)c(C(=O)c2ccc(OCc3nc(-c4ccccc4)oc3C)cc2)c(O[C@H](C)C(=O)O)c1` [Example 42, (2R)-2-(5-methoxy-3-methyl-2-{4-[(5-methyl-2-phenyl-1,3-oxazol-4-yl)methoxy]benzoyl}phenoxy)propanoic acid], the melting point is 122 to 123 °C. Moreover, on PPAR γ-RXRα heterodimer, the EC50 was found to be 0.001 µM and the “Vmax (%)” value was 73%.

`COc1ccc(C(=O)c2ccc(OCc3ccccc3)nc2)c(OC(C)(C)C(=O)OC(C)(C)C)c1` [Example 45, tert-butyl 2-(2-{[6-(benzyloxy)pyridin-3-yl]carbonyl}-5-methoxyphenoxy)-2-methylpropanoate] came in with a melting point of 58 to 60 °C.

Turning to `COc1ccc(C(=O)c2ccc(Oc3ccccc3)nc2)c(OC(C)(C)C(=O)O)c1` [Example 51, 2-{5-methoxy-2-[(6-phenoxypyridin-3-yl)carbonyl]phenoxy}-2-methylpropanoic acid], the melting point lay within 167.5 to 168.5 °C.

In turn, `COc1ccc(C(=O)c2ccc(OCc3nc(-c4ccccc4)oc3C)nc2)c(O[C@H](C)C(=O)O)c1` [Example 54, (2R)-2-[5-methoxy-2-({6-[(5-methyl-2-phenyl-1,3-oxazol-4-yl)methoxy]pyridin-3-yl}carbonyl)phenoxy]propanoic acid] registered a melting point of 164.5 to 165.5 °C.

As for `COc1ccc(C(=O)c2ccc(OCCc3nc(-c4ccccc4)oc3C)nc2)c(O[C@H](C)C(=O)O)c1` [Example 55, (2R)-2-[5-methoxy-2-({6-[2-(5-methyl-2-phenyl-1,3-oxazol-4-yl)ethoxy]pyridin-3-yl}carbonyl)phenoxy]propanoic acid], on PPAR γ-RXRα heterodimer, the midpoint of the response, the EC50, lay at 0.015 µM and the “Vmax (%)” value was found to be 44%.

`COc1ccc(C(=O)c2ccc(OCc3nc(-c4ccccc4)oc3C)cc2)c(O[C@@H](C)C(=O)O)c1` [Example 57, (2S)-2-(5-methoxy-2-{4-[(5-methyl-2-phenyl-1,3-oxazol-4-yl)methoxy]benzoyl}phenoxy)propanoic acid]: the melting point was 169 to 170 °C.
